From patent US20060094676A1, “Compositions and methods for treating cancer using compositions comprising an inhibitor of endothelin receptor activity” (priority 2004, published 2006) come the findings set out here.

“Also recorded” adds a separate entry of the source.

The subject of one assay is HIF-1α. The assay can be described thus: Real-time RT-PCR of HIF-1α transcripts. The class given is cell-based, human. Conditions: melanoma cell lines treated with BQ788; amplitude correlates with VEGF changes. As for the experimental part:
Equal amounts of RNA from cells that were treated with BQ788 for 3 days were subjected to real-time RT-PCR analysis for the detection VEGF (A), HIF-1α (B) and Gravin (C) transcripts. Differences in expression levels are shown as x fold change and are statistically significant (p<0.05) unless a column in marked as non significant (N.S.). Sections of two representative tumors derived from a human melanoma cell line grown in nude mice and injected either with vehicle (D) or BQ788 (E) were stained with anti CD-31 to highlight blood vessels (brown staining, Lahav et al, 1999).
RNA was prepared from the different cell lines in different culture conditions using SV total RNA isolation kit (Promega) according to the manufacturer's protocol. For each sample RNA concentration was determined using the total RNA nano procedure of an Agilent bioanalyzer. A stock of SK-MEL-28 RNA aliquots was prepared containing 10, 20, 50, 100, 200, 500 and 1000 ng/12 μl for use as a standard curve and kept in −80° C. For the experimental unknown samples, a stock of 100 ng/12 μl RNA aliquots from each cell line and condition was prepared and stored at −80° C. […] A standard curve of Ct versus RNA quantity was established and accordingly the Ct in the unknown samples was correlated to quantity of transcript. […]

In assay [1] the test system is SK-MEL-28 and LN-met cell lines. Description: cDNA microarray analysis of differentially regulated genes. Conditions: SK-MEL-28 and LN-met after 2 days BQ788, confirmed by real-time RT-PCR. The class given is cell-based, human. As for the experimental part:
Cells were cultured in the presence of BQ788 or its solvent (HCO60) for 2 days and then lysed and subjected to RNA extraction using SV Total RNA isolation kit (Promega). Two rounds of RNA amplification were conducted using RiboAmp™ RNA Amplification kit (Arcturus). Labeled cDNA was obtained by reverse transcription of 6 μl amplified RNA and incorporation of Cy3-dCTP (5-Amino-propargyl-2′-dexoycytidine 5′-triphosphate coupled to Cy3 fluorescent dye) and Cy5-dCTP (5-Amino-propargyl-2′-dexoycytidine 5′-triphosphate coupled to Cy5 fluorescent dye) (Amersham Biosciences). Human 10k arrays containing PCR products spotted onto glass slides were obtained from the Lausanne DNA Array Facility (DAF). Hybridization of labeled cDNA to microarrays was preformed for 16 h at 64° C. in a humidified chamber (Corning Costar). Scanning was done in a Scanarray 4000 scanner (Perkin Elmer). Image analysis was preformed using the ScanAlyse program (version 2.5). Data analysis was done using the R package: Statistics for Microarray analysis containing com.braju.sma package (www.r-project.org).
To explore the possible mechanisms that underlie the loss of viability of metastatic but not primary melanoma cells in response to ETRB antagonism, changes in gene expression profiles of BQ788-treated and untreated cells were investigated by cDNA microarray analysis. […]

For `CCCC[C@@H](NC(=O)[C@@H](Cc1cn(C(=O)OC)c2ccccc12)NC(=O)[C@H](CC(C)(C)C)NC(=O)N1[C@H](C)CCC[C@@H]1C)C(=O)O` [BQ788, N-cis-2,6-dimethylpiperidinocarbonyl-L-γ-methylleucyl-D-1-methoxycarbonyltrptophanyl-D-norleucine], the “HIF-1α RNA expression levels” value in the assay on HIF-1α is recorded as “small but significant changes”. Besides, in assay [1], the Down regulated gene result is listed as “BCL2-A1; also recorded: PARP-3; also recorded: Gravin; also recorded: EDNRB”; the Up regulated gene result is “VEGF and HIF-1α”.
